Assay results taken from ChEMBL document CHEMBL1201862, “PubChem BioAssay data set” (2004).
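Cultured in 96-well plates, cells were exposed to test compound for 48 hours across five concentrations. GI50: concentration for 50% inhibition of growth.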 Activity calls are given as the source filed them. Cut-off read from the data, not from the text of the source: active = GI50 up to about 1.1 µM and inactive = higher.

Experiments:
Test in all cases: inhibition of tumour cell growth, NCI panel, 48 h
[1] = tested on: HOP-92
[2] = tested on: UACC-62
[3] = tested on: CAKI-1
[4] = tested on: K562
[5] = tested on: MDA-MB-231
[6] = tested on: HCT-15
[7] = tested on: SK-OV-3
[8] = tested on: ACHN
[9] = tested on: SF-268
[10] = tested on: RXF 393
[11] = tested on: UO-31
[12] = tested on: T47D
[13] = tested on: SF-539
[14] = tested on: SF-295
[15] = tested on: MDA-MB-435
[16] = tested on: 786-0
[17] = tested on: UACC-257
[18] = tested on: Hs-578T
[19] = tested on: MOLT-4
[20] = tested on: RPMI-8226

Row | Structure (SMILES) | GI50 [1] | GI50 [2] | GI50 [3] | GI50 [4] | GI50 [5] | GI50 [6] [µM] | GI50 [7] | GI50 [8] | GI50 [9] | GI50 [10] | GI50 [11] | GI50 [12] | GI50 [13] | GI50 [14] | GI50 [15] | GI50 [16] | GI50 [17] | GI50 [18] | GI50 [19] | GI50 [20]
1 | c1ccc(-c2nnc(SCc3c[nH]c4ccccc34)n2-c2ccccc2)cc1 | 3.55 µM (inactive) | 21.5 µM (inactive) | 33.1 µM (inactive) | 47.5 µM (inactive) | 29.4 µM (inactive) | 45 | 32.4 µM (inactive) | 26.6 µM (inactive) | 38.2 µM (inactive) | 16.6 µM (inactive) | > 100 µM (inactive) | 20 µM (inactive) | 18.9 µM (inactive) | 19.6 µM (inactive) | 34.6 µM (inactive) | 31.8 µM (inactive) | 23.8 µM (inactive) | 17.4 µM (inactive) | 8.11 µM (inactive) | > 100 µM (inactive)
2 | CC1(C)C(=O)C2(C#N)CCC1C2 (stereo not given) | > 100 µM (inactive) | > 100 µM (inactive) | > 100 µM (inactive) | > 100 µM (inactive) | > 100 µM (inactive) | > 100 | > 100 µM (inactive) | > 100 µM (inactive) | > 100 µM (inactive) | > 100 µM (inactive) | > 100 µM (inactive) | > 100 µM (inactive) | > 100 µM (inactive) | > 100 µM (inactive) | > 100 µM (inactive) | > 100 µM (inactive) | > 100 µM (inactive) | > 100 µM (inactive) | > 100 µM (inactive) | > 76.9 µM (inactive)
3 | COC1/C=C\OC2(C)Oc3c(C)c(O)c4c(O)c(c(CN(C)C)c(O)c4c3C2=O)NC(=O)/C(C)=C\C=C/C(C)C(O)C(C)C(O)C(C)C(OC(C)=O)C1C (stereo not given) | 45 µM (inactive) | 18.3 µM (inactive) | 57.1 µM (inactive) | 22.6 µM (inactive) | 28.8 µM (inactive) | 44.2 | > 100 µM (inactive) | 61.9 µM (inactive) | 33.3 µM (inactive) | 37.8 µM (inactive) | 39 µM (inactive) | 29 µM (inactive) | 17.5 µM (inactive) | > 100 µM (inactive) | 26.4 µM (inactive) | 27.4 µM (inactive) | 22.4 µM (inactive) | 30.7 µM (inactive) | 15.5 µM (inactive) | 6.5 µM (inactive)
4 | O=C(Nc1sccc1S(=O)(=O)c1ccc(Cl)cc1)c1ccc(F)cc1F | 19.5 µM (inactive) | 25.8 µM (inactive) | 26.2 µM (inactive) | 18 µM (inactive) | 20.7 µM (inactive) | 66.4 | 21.9 µM (inactive) | 32.1 µM (inactive) | 19.7 µM (inactive) | 21.7 µM (inactive) | 22.2 µM (inactive) | 31.8 µM (inactive) | 14.3 µM (inactive) | 23.3 µM (inactive) | > 100 µM (inactive) | 18.7 µM (inactive) | > 100 µM (inactive) | 26.2 µM (inactive) | 20.4 µM (inactive) | 62.8 µM (inactive)
5 | N#CC1(C#N)C2(c3ccccc3)OC(c3ccccc3)(c3cc4ccccc4cc32)C1(C#N)C#N | 1.52 µM (inactive) | 17.7 µM (inactive) | 7.91 µM (inactive) | 2.86 µM (inactive) | 15.7 µM (inactive) | 12.2 | 21.1 µM (inactive) | 11.8 µM (inactive) | 17 µM (inactive) | 5.51 µM (inactive) | 24 µM (inactive) | 13.6 µM (inactive) | 16.1 µM (inactive) | 15.8 µM (inactive) | 17.1 µM (inactive) | 8.51 µM (inactive) | 27.5 µM (inactive) | 25.8 µM (inactive) | 1.71 µM (inactive) | 1.28 µM (inactive)
6 | CC1(C)C(CCO)CC1n1cc(I)c(=O)[nH]c1=O (stereo not given) | > 100 µM (inactive) | 21.1 µM (inactive) | > 100 µM (inactive) | > 100 µM (inactive) | 86.3 µM (inactive) | > 100 | > 100 µM (inactive) | > 100 µM (inactive) | > 100 µM (inactive) | > 100 µM (inactive) | > 100 µM (inactive) | > 100 µM (inactive) | > 100 µM (inactive) | > 100 µM (inactive) | > 100 µM (inactive) | > 100 µM (inactive) | > 100 µM (inactive) | 90.6 µM (inactive) | > 100 µM (inactive) | > 100 µM (inactive)
7 | COc1cc2c(cc1OC)C(Cl)C(c1ccc(Br)cc1)=C2Cl (stereo not given) | 12.1 µM (inactive) | 11.2 µM (inactive) | 15.1 µM (inactive) | 5.33 µM (inactive) | 9.64 µM (inactive) | 8.18 | 16.1 µM (inactive) | 9.46 µM (inactive) | 11.1 µM (inactive) | 11.2 µM (inactive) | 8.65 µM (inactive) | 3.23 µM (inactive) | 12.4 µM (inactive) | 14.9 µM (inactive) | 4.37 µM (inactive) | 3.94 µM (inactive) | 15.1 µM (inactive) | 6.19 µM (inactive) | 4.24 µM (inactive) | 2.52 µM (inactive)
8 | CCN1CCC(O)(c2ccc(Oc3ccc(Cl)cc3)cc2)C(C(=O)c2ccc(Oc3ccc(Cl)cc3)cc2)C1 (stereo not given) | 7.16 µM (inactive) | 12.2 µM (inactive) | 14.3 µM (inactive) | 5.28 µM (inactive) | 14.7 µM (inactive) | 7.35 | 23.3 µM (inactive) | 14 µM (inactive) | 17.8 µM (inactive) | 26.2 µM (inactive) | 13.6 µM (inactive) | 14.7 µM (inactive) | 15.3 µM (inactive) | 12.4 µM (inactive) | 16.4 µM (inactive) | 3.55 µM (inactive) | 13.3 µM (inactive) | 20.7 µM (inactive) | 8.45 µM (inactive) | 3.37 µM (inactive)
9 | C/C(=C/CC[C@](C)(OC1OC(CO)C(O)C(O)C1OC1OC(C)C(O)C(O)C1O)[C@H]1CC[C@]2(C)[C@@H]1CC[C@@H]1[C@@]3(C)CC[C@H](O)C(C)(C)[C@@H]3C[C@H](O)[C@]12C)CO (stereo not given in full) | > 100 µM (inactive) | > 100 µM (inactive) | > 100 µM (inactive) | > 100 µM (inactive) | > 100 µM (inactive) | > 10 | > 100 µM (inactive) | > 100 µM (inactive) | > 100 µM (inactive) | > 100 µM (inactive) | > 100 µM (inactive) | > 100 µM (inactive) | > 100 µM (inactive) | > 100 µM (inactive) | > 100 µM (inactive) | > 100 µM (inactive) | > 100 µM (inactive) | > 100 µM (inactive) | > 100 µM (inactive) | > 100 µM (inactive)
10 | O=[N+]([O-])C(=C1NCCN1)/C(Cl)=C(\Cl)Br | 34.4 µM (inactive) | 43.1 µM (inactive) | 16.3 µM (inactive) | 5.33 µM (inactive) | > 60.3 µM (inactive) | 4.98 | > 100 µM (inactive) | 38.2 µM (inactive) | 35.2 µM (inactive) | 14.1 µM (inactive) | 84.1 µM (inactive) | 17.5 µM (inactive) | > 63 µM (inactive) | > 100 µM (inactive) | 29.4 µM (inactive) | 17.6 µM (inactive) | > 49.8 µM (inactive) | > 100 µM (inactive) | 22.3 µM (inactive) | 22.4 µM (inactive)
11 | CCO[C@]12CCC[C@H]1[C@@H]1C(=O)c3ccccc3C(=O)C1=C(C)O2 | 44.9 µM (inactive) | > 100 µM (inactive) | 55.8 µM (inactive) | 32 µM (inactive) | > 100 µM (inactive) | > 100 | > 100 µM (inactive) | 36.8 µM (inactive) | 30.8 µM (inactive) | 20.5 µM (inactive) | > 100 µM (inactive) | 70 µM (inactive) | 29.4 µM (inactive) | 81.1 µM (inactive) | 39.5 µM (inactive) | 29.2 µM (inactive) | > 100 µM (inactive) | > 100 µM (inactive) | 33.6 µM (inactive) | 29.2 µM (inactive)
12 | N#CC(C#N)=Cc1c(O)ccc2ccccc12 | 0.422 µM (active) | 12.9 µM (inactive) | 14.1 µM (inactive) | 4.05 µM (inactive) | 13.2 µM (inactive) | 14.1 | 15.8 µM (inactive) | 10.4 µM (inactive) | 11.9 µM (inactive) | 15.2 µM (inactive) | 14 µM (inactive) | 13.3 µM (inactive) | 10.6 µM (inactive) | 15 µM (inactive) | 14.4 µM (inactive) | 13.3 µM (inactive) | 16.8 µM (inactive) | 17.3 µM (inactive) | 2.18 µM (inactive) | 11.9 µM (inactive)
13 | COc1ccc2c(C(=O)c3c(C)n(CCN4CCOCC4)c4ccccc34)cccc2c1 | 19.8 µM (inactive) | 18.2 µM (inactive) | 59 µM (inactive) | 18.7 µM (inactive) | 22.6 µM (inactive) | 21.3 | 39.6 µM (inactive) | 37.5 µM (inactive) | 16.1 µM (inactive) | 22.1 µM (inactive) | 34 µM (inactive) | 17.4 µM (inactive) | 84.3 µM (inactive) | 16.8 µM (inactive) | 5.6 µM (inactive) | 27.7 µM (inactive) | 20.3 µM (inactive) | 10.8 µM (inactive) | 19.4 µM (inactive) | 24.7 µM (inactive)
14 | COc1cc(Cn2c(=S)ss/c2=N\C(=S)N(C)C)cc(OC)c1OC | 17.9 µM (inactive) | 2.85 µM (inactive) | 4.57 µM (inactive) | 2.59 µM (inactive) | 15.1 µM (inactive) | 3.57 | 13.4 µM (inactive) | 7.06 µM (inactive) | 8.93 µM (inactive) | 2.79 µM (inactive) | 24.3 µM (inactive) | > 86.7 µM (inactive) | 6.35 µM (inactive) | 3.44 µM (inactive) | 1.26 µM (inactive) | 7.36 µM (inactive) | 10.6 µM (inactive) | 2.7 µM (inactive) | 8.91 µM (inactive) | 6.7 µM (inactive)
